Reference: ChEMBL document CHEMBL4196234, “Deciphering Binding Interactions of IL-23R with HDX-MS: Mapping Protein and Macrocyclic Dodecapeptide Ligands” (ACS Med Chem Lett, 2018)
pIC50, pKd: −log10 of the molar value.

Columns and labels:
Interleukin-23 receptor [1] = target: T1, Interleukin-23 receptor (Homo sapiens, UniProt Q5VWK5); test: Binding affinity to recombinant human flag/His-tagged IL-23R (1 to 353 residues) expressed in HEK293F cells assessed as dissociation rate constant measured over 90 secs by surface plasmon resonance assay
T1 sequence (Q5VWK5 whole entry): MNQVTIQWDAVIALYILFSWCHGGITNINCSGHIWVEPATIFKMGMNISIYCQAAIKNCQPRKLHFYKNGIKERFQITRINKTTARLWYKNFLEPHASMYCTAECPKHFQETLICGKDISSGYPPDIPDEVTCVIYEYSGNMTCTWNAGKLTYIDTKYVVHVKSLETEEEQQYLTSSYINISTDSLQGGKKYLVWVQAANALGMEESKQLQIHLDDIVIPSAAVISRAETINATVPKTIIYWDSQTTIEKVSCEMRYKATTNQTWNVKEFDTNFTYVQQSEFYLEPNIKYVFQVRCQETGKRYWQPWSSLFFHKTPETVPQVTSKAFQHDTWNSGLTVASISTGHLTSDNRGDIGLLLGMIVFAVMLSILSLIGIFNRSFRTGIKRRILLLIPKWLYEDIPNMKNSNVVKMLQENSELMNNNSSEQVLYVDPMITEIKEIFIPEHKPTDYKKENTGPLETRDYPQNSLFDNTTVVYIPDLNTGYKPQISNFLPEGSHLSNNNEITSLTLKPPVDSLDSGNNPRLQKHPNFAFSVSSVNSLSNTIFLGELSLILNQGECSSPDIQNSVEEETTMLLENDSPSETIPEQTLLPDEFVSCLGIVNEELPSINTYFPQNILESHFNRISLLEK

Interleukin-23 receptor [2] = target: T1, Interleukin-23 receptor; test: Binding affinity to recombinant human flag/His-tagged IL-23R (1 to 353 residues) expressed in HEK293F cells assessed as disruption of biotinylated IL-23 binding to receptor preincubated for 1 hr followed by biotinylated IL-23 addition measured after 1 hr by TR-FRET assay; type: cell-based
Interleukin-23 receptor [3] = target: T1, Interleukin-23 receptor; test: Binding affinity to recombinant human flag/His-tagged IL-23R (1 to 353 residues) expressed in HEK293F cells measured over 90 secs by surface plasmon resonance assay
[4] = target: T2, Interleukin-23 receptor (Homo sapiens) (UniProt Q5VWK5); test: Binding affinity to recombinant human flag/His-tagged IL-23R (1 to 353 residues) expressed in HEK293F cells assessed as association rate constant measured over 90 secs by surface plasmon resonance assay
T2 sequence (whole entry): T1 sequence (Q5VWK5 whole entry)

Interleukin-23 receptor [5] = target: T1, Interleukin-23 receptor; test: Binding affinity to recombinant human flag/His-tagged IL-23R (1 to 353 residues) expressed in HEK293F cells assessed as disruption of biotinylated IL-23 binding to receptor preincubated for 1 hr followed by biotinylated IL-23 addition measured after over night incubation by AlphaLISA assay; type: cell-based

CC(=O)N[C@H]1CCSC[C@@H](C(=O)N[C@@H](Cc2ccc(OCCN)cc2)C(=O)N[C@@H](Cc2c[nH]c3ccccc23)C(=O)N[C@@](C)(CCCCN)C(=O)N[C@@H](CCC(=O)O)C(=O)N[C@@H](CC(N)=O)C(=O)NCC(N)=O)NC(=O)[C@H](CCC(N)=O)NC(=O)[C@H](Cc2c[nH]c3ccccc23)NC(=O)[C@H]([C@@H](C)O)NC(=O)[C@H](CCC(N)=O)NC1=O
Kd (Interleukin-23 receptor [1]): 2.74 ×10⁻² (1/s) | pIC50 (Interleukin-23 receptor [2]): 8.29 | pKd (Interleukin-23 receptor [3]): 8.70 to 8.74 | Ka [4]: 1.51 ×10⁷ (1/Ms) | pIC50 (Interleukin-23 receptor [5]): 8.57
